# From patent US20120219535A1, “CRANIAL NEURAL CREST STEM CELLS AND CULTURE CONDITION THAT SUPPORTS THEIR GROWTH” (University of Southern California, priority 2009, published 2012)
# “Also recorded” adds a separate entry of the source.
# Assays:
# [1] = test system: craNCSC clone D7-1; assay: AG490 (Jak inhibitor) treatment of long-term cultured craNCSC clone D7-1, alive cell count; assay type: cell-based, mouse; conditions: counted daily, vs 0.4% DMSO vehicle
# Procedure: (§1) AG490 (Sigma Chemical Co., St Louis, Mo., USA) was reconstituted in dimethyl sulfoxide (DMSO) and stored at −20° C. A stock concentration was 10 mM. Cranial tissues of Wnt1-Cre;R26R;EGFP mouse at E8.5 were dissociated by 0.025% trypsin and 1 mg/ml collagenase in DPBS. Then, neural crest cells labeled with Wnt1-Cre;R26R;EGFP were sorted by means of FACS and used for Jak inhibitor treatment. D7-1 or primary cultured cranial neural crest cells were seeded to fibronectin coated plate at a density of 20000 or 12700 cell/cm^2 respectively, and incubated for three days in basal medium as described above, added with either control DMSO, 10 μM AG490, or 20 μM AG490. Culture medium was changed daily. Alive cell number was counted on each day for D7-1 and third day for primary cultured cells.
# The hypothesis that phosphorylation of STAT3 by JAK kinase is essential for the maintenance of craNCSC was also investigated. JAK inhibitor AG490 was used for this study. AG490 is synthetic PTK inhibitor with anti-JAK2 activity. […] If craNCSC require the JAK-STAT signal for its maintenance, treatment of AG490 will cause overt effects. 10 μM and 20 μM AG490 treatment against D7-1 was performed for three days and alive cell number was counted on each day. […] Dose dependent susceptibility of D7-1 against AG490 was also evident.
# [2] = test system: primary cultured cranial neural crest cells; assay: AG490 (Jak inhibitor) treatment of primary cultured cranial neural crest cells, alive cell count; assay type: cell-based, mouse; conditions: E8.5 FACS sorted cells
# Procedure: as §1
# These experiments were done with a long-term cultured craNCSC clone, D7-1, which has been treated with LIF during entire culture process. Therefore, it is possible that D7-1 cells has been poised to LIF and adopted to the JAK-STAT dependent culture condition. To evaluate this, Applicants freshly isolated Wnt1-Cre;R26R;EGFP positive cranial neural crest cells from E8.5 mouse embryos by FACS sorting and treated them with AG490 for three days. If JAK2 activity is dispensable to these primary neural crest, chemical treatment would not cause any apparent effects. […]
# [3] = test system: STAT3 negative cells; conditions: 80 μM AG490; cited from earlier work
# [4] = test system: human B-precursor leukemic cell line; conditions: by inducing apoptosis; cited from earlier work
# [5] = test system: cells which are independent from the JAK-STAT signal; conditions: cited from earlier work
structure (smiles),measurement,setting,value
N#C/C(=C/c1ccc(O)c(O)c1)C(=O)NCc1ccccc1 [AG490],alive (viable) cell number,"[1]; 10 μM AG490, three days",smaller effect; also recorded: more modest effect
same,alive (viable) cell number,"[1]; 20 μM AG490, three days",significant reduction of the viable cells; also recorded: significant depletion of cell survival
same,cell mortality (alive cell number),"[2]; 10 μM AG490, three days",High cell mortality
same,cell mortality (alive cell number),"[2]; 20 μM AG490, three days",High cell mortality
same,general toxicity,[3],does not cause general toxicity
same,cell growth,[4],prevents the growth
same,effect on cells,[5],no obvious effect
